These compounds were tested against human RIP1 kinase domain (2-375) (Homo sapiens (Human), UniProt Q13546) (assay: biochemical). Details: Table 1; apparent Ki (Morrison tight-binding fit); 50 nM RIP1 kinase domain, 50 uM ATP, 2 hours incubation; read-out: RIP1 Ki.
Assay type: biochemical
Summary of the method: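 Ki^app comes from Morrison tight-binding fits of fractional activity versus compound concentration. Activity was read as ADP production, via tracer displacement lowering fluorescence polarization (633 nm laser). Conditions: 2 h, 50 nM insect-cell-expressed enzyme, 50 uM ATP, 30 mM MgCl2, 1 mM DTT, 0.5% DMSO, pH 7.5 Hepes.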

Sequence of human RIP1 kinase domain (2-375) (Q13546 2-375): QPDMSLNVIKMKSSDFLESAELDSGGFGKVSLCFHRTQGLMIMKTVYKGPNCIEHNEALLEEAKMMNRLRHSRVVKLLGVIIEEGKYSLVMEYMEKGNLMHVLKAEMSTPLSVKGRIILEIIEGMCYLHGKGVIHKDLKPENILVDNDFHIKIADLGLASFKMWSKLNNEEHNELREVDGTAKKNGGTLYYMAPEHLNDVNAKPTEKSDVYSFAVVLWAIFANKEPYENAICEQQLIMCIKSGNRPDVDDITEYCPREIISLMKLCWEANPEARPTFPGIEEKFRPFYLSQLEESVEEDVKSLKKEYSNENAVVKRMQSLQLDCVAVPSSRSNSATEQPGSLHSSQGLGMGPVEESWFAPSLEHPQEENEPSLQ

Row | Structure (SMILES) | Ki
1 | CN1C(=O)[C@@H](NC(=O)c2noc3c2CC(C(C)(C)C)CC3)COc2ccccc21 (stereo partly drawn) [Example 64, 5-(tert-butyl)-N-((S)-5-methyl-4-oxo-2,3,4,5-tetrahydrobenzo[b][1,4]oxazepin-3-yl)-4,5,6,7-tetrahydrobenzo[d]isoxazole-3-carboxamide] | 73.5 nM

Same assay, conditions: Table 5; apparent Ki (Morrison tight-binding fit); 50 nM RIP1 kinase domain, 50 uM ATP, 2 hours incubation; read-out: Ki

Row | Ki | Structure (SMILES)
2 | 355 nM | CN1C(=O)C(NC(=O)c2ncn(Cc3ccccc3)n2)CCn2nc(CN3CC(F)C3)cc21 (single isomer, unassigned) [Example 721, 1-benzyl-N-[2-[(3-fluoroazetidin-1-yl)methyl]-4-methyl-5-oxo-7,8-dihydro-6H-pyrazolo[1,5-a][1,3]diazepin-6-yl]-1,2,4-triazole-3-carboxamide]

Same assay, conditions: human RIP1 kinase domain (2-375), 50 uM ATP, 2 hours incubation, Transcreener ADP assay; read-out: RIP1 Ki

Row | Ki | Structure (SMILES)
3 | 3700 nM | CCOc1ccc2[nH]nc(C(=O)N[C@H]3COc4ccccc4N(C)C3=O)c2n1 [Example 138, 5-ethoxy-N-[(3S)-5-methyl-4-oxo-2,3-dihydro-1,5-benzoxazepin-3-yl]-1H-pyrazolo[4,3-b]pyridine-3-carboxamide]
4 | 1400 nM | CN1C(=O)[C@@H](NC(=O)c2nnc3ccc(C4CC4)cn23)COc2ccccc21 [Example 84, (S)-6-cyclopropyl-N-(5-methyl-4-oxo-2,3,4,5-tetrahydrobenzo[b][1,4]oxazepin-3-yl)-[1,2,4]triazolo[4,3-a]pyridine-3-carboxamide]
5 | 24.5 nM | CN1C(=O)[C@@H](NC(=O)c2ncn(CC3CCCC3)n2)CCn2nc(C3CC3)cc21 [Example 160, (S)-1-(cyclopentylmethyl)-N-(2-cyclopropyl-4-methyl-5-oxo-5,6,7,8-tetrahydro-4H-pyrazolo[1,5-a][1,3]diazepin-6-yl)-1H-1,2,4-triazole-3-carboxamide]
6 | 46.2 nM | CN1C(=O)[C@@H](NC(=O)c2ncn(Cc3ccccc3)n2)CCn2nc([C@@H]3CC3(F)F)cc21 [Example 147, 1-benzyl-N-((S)-2-((S)-2,2-difluorocyclopropyl)-4-methyl-5-oxo-5,6,7,8-tetrahydro-4H-pyrazolo[1,5-a][1,3]diazepin-6-yl)-1H-1,2,4-triazole-3-carboxamide]

Same assay, conditions: human RIP1 kinase domain (2-375), Transcreener ADP assay, 50 uM ATP, 2 hours incubation; read-out: RIP1 Ki

Row | Ki | Structure (SMILES)
7 | 44.6 nM | CN1C(=O)[C@@H](NC(=O)c2cc3c(cn2)COC3(C)CC(F)(F)F)COc2ccccc21 (stereo partly drawn) [Example 229, 1-methyl-N—((S)-5-methyl-4-oxo-2,3,4,5-tetrahydrobenzo[b][1,4]oxazepin-3-yl)-1-(2,2,2-trifluoroethyl)-1,3-dihydrofuro[3,4-c]pyridine-6-carboxamide]
8 | 221 nM | Cc1cc2n(n1)CCC(NC(=O)c1ncn(CC3CCC3)n1)C(=O)N2C (stereo not drawn) [Example 247, 1-(cyclobutylmethyl)-N-(2,4-dimethyl-5-oxo-5,6,7,8-tetrahydro-4H-pyrazolo[1,5-a][1,3]diazepin-6-yl)-1H-1,2,4-triazole-3-carboxamide]
9 | 395 nM | Cc1cc2n(n1)CC[C@H](NC(=O)c1ncn(CC3(C)CC3)n1)C(=O)N2C [Example 289, (S)—N-(2,4-dimethyl-5-oxo-5,6,7,8-tetrahydro-4H-pyrazolo[1,5-a][1,3]diazepin-6-yl)-1-((1-methylcyclopropyl)methyl)-1H-1,2,4-triazole-3-carboxamide]
10 | 45.2 nM | Cc1nn2c(c1C)N(C)C(=O)[C@@H](NC(=O)c1ncn(Cc3cccc(F)c3F)n1)CC2 [Example 272, (S)-1-(2,3-difluorobenzyl)-N-(2,3,4-trimethyl-5-oxo-5,6,7,8-tetrahydro-4H-pyrazolo[1,5-a][1,3]diazepin-6-yl)-1H-1,2,4-triazole-3-carboxamide]
11 | 5250 nM | CN1C(=O)[C@@H](NC(=O)c2ncn(Cc3cccc(F)c3F)n2)CCn2nc([C@H]3CC3(F)F)cc21 [Example 311, 1-(2,3-difluorobenzyl)-N—((S)-2-((R)-2,2-difluorocyclopropyl)-4-methyl-5-oxo-5,6,7,8-tetrahydro-4H-pyrazolo[1,5-a][1,3]diazepin-6-yl)-1H-1,2,4-triazole-3-carboxamide]

Same assay, conditions: tight-binding apparent inhibition constant; human RIP1 kinase domain (2-375) 50 nM, 50 uM ATP, 2 hours; read-out: Ki

Row | Structure (SMILES) | Ki
12 | O=C(N[C@H]1CCc2cc(F)cc(F)c2NC1=O)c1nc2n(n1)CC[C@H]2c1ccccc1 (single isomer, unassigned) [Example 628] | 5 nM
13 | Cc1cc2n(n1)CC[C@H](NC(=O)c1ncc3cnn(C4CCCC4)c3n1)C(=O)N2C [Example 543, 1-cyclopentyl-N-[(6S)-2,4-dimethyl-5-oxo-7,8-dihydro-6H-pyrazolo[1,5-a][1,3]diazepin-6-yl]pyrazolo[3,4-d]pyrimidine-6-carboxamide] | 68 nM
14 | CN1C(=O)C(NC(=O)c2ncn(Cc3ccccc3)n2)CCn2nc(CN3CCOCC3)cc21 (stereo not drawn) [Example 443, 1-benzyl-N-(4-methyl-2-(morpholinomethyl)-5-oxo-5,6,7,8-tetrahydro-4H-pyrazolo[1,5-a][1,3]diazepin-6-yl)-1H-1,2,4-triazole-3-carboxamide] | 299 nM
15 | CN1C(=O)[C@@H](NC(=O)c2ncc3cnn(-c4ccccn4)c3n2)COc2ccccc21 [Example 631, 1-(2-pyridyl)-N-[(3S)-5-methyl-4-oxo-2,3-dihydro-1,5-benzoxazepin-3-yl]pyrazolo[3,4-d]pyrimidine-6-carboxamide] | 160 nM
16 | CN1C(=O)[C@@H](NC(=O)c2ncn(Cc3ncccc3F)n2)CCn2nc(C3CC3)cc21 [Example 655] | 140 nM
17 | CN1C(=O)[C@@H](NC(=O)c2ncn(Cc3ccc(Cl)cc3)n2)CCn2nc(C3CC3)cc21 (racemic) [Example 677, 1-[(4-chlorophenyl)methyl]-N-[rac-(6S)-2-cyclopropyl-4-methyl-5-oxo-7,8-dihydro-6H-pyrazolo[1,5-a][1,3]diazepin-6-yl]-1,2,4-triazole-3-carboxamide] | 7.58 nM
18 | Cc1cc2n(n1)CC[C@H](NC(=O)c1ncc3c(n1)[C@](C)(CC(F)(F)F)OC3)C(=O)N2C (racemic) [Example 689, rac-(75)-7-methyl-N-[rac-(6S)-2,4-dimethyl-5-oxo-7,8-dihydro-6H-pyrazolo[1,5-a][1,3diazepin-6-yl]-7-(2,2,2-trifluoroethyl)-5H-furo[3,4-d]pyrimidine-2-carboxamide] | 176 nM
19 | CN1C(=O)[C@@H](NC(=O)c2nccc(C3(O)CCCC3)n2)COc2ccccc21 [Example 509, 4-(1-hydroxycyclopentyl)-N-[(3S)-5-methyl-4-oxo-2,3-dihydro-1,5-benzoxazepin-3-yl]pyrimidine-2-carboxamide] | 440 nM
20 | O=C(N[C@H]1CCc2cc(F)cc(F)c2NC1=O)c1nc2n(n1)[C@H](c1ccccc1)CC2 (single isomer, unassigned) [Example 612] | 71 nM
21 | Cc1cc2n(n1)CC[C@H](NC(=O)c1ncn(CC3(C)CCC3)n1)C(=O)N2C [Example 560, 1-[(1-methylcyclobutyl)methyl]-N-(6S)-2,4-dimethyl-5-oxo-7,8-dihydro-6H-pyrazolo[1,5-a][1,3]diazepin-6-yl-1,2,4-triazole-3-carboxamide] | 140 nM

The next lines start with the values.

Row | Ki | Structure (SMILES)
22 | 65.8 nM | CN1C(=O)[C@@H](NC(=O)c2nc3cccc(-c4ccccc4)c3s2)COc2ccccc21 [Example 391, (S)—N-(5-methyl-4-oxo-2,3,4,5-tetrahydrobenzo[b][1,4]oxazepin-3-yl)-7-phenylbenzo[d]thiazole-2-carboxamide]
23 | 48 nM | COc1ccccc1Cn1cnc(C(=O)N[C@H]2CCn3nc(C)cc3N(C)C2=O)n1 [Example 589, 1-[(2-methoxyphenyl)methyl]-N-(6S)-2,4-dimethyl-5-oxo-7,8-dihydro-6H-pyrazolo[1,5-a][1,3]diazepin-6-yl-1,2,4-triazole-3-carboxamide]
24 | 31.1 nM | C=C(C)c1cc2n(n1)CCC(NC(=O)c1ncn(Cc3ccccc3)n1)C(=O)N2C (racemic) [Example 365, 1-benzyl-N-(2-isopropenyl-4-methyl-5-oxo-7,8-dihydro-6H-pyrazolo[1,5-a][1,3]diazepin-6-yl)-1,2,4-triazole-3-carboxamide]
25 | 180 nM | CCC[C@]1(C)OCc2cnc(C(=O)N[C@H]3COc4cc(F)cc(F)c4NC3=O)nc21 [Example 619, (7S)-7-methyl-7-propyl-N-[(3S)-6,8-difluoro-4-oxo-3,5-dihydro-2H-1,5-benzoxazepin-3-yl]-5H-furo[3,4-d]pyrimidine-2-carboxamide]
26 | 21.4 nM | CC[C@]1(C)OCc2cnc(C(=O)N[C@H]3COc4ccccc4N(C)C3=O)nc21 (racemic) [Example 685, rac-(7S)-7-ethyl-7-methyl-N-[rac-(3S)-5-methyl-4-oxo-2,3-dihydro-1,5-benzoxazepin-3-yl]-5H-furo[3,4-d] pyrimidine-2-carboxamide]
27 | 3100 nM | Cc1cc2n(n1)CC[C@H](NC(=O)c1ncc3cnn(-c4ccccn4)c3n1)C(=O)N2C [Example 632, 1-(2-pyridyl)-N-[(6S)-2,4-dimethyl-5-oxo-7,8-dihydro-6H-pyrazolo[1,5-a][1,3]diazepin-6-yl]pyrazolo[3,4-d]pyrimidine-6-carboxamide]
28 | 130 nM | Cc1ncc2n1CCC(NC(=O)c1ncn(Cc3ccccc3)n1)C(=O)N2C (racemic) [Example 557, 1-benzyl-N-(1,7-dimethyl-2-oxo-4,5-dihydro-3H-imidazo[1,5-a][1,3]diazepin-3-yl)-1,2,4-triazole-3-carboxamide]
29 | 20 nM | Cc1cc(F)c2c(c1)OC[C@H](NC(=O)c1nc3n(n1)C(C(C)C)CC3)C(=O)N2 (stereo partly drawn) [Example 345, N-[(3S)-6-fluoro-8-methyl-4-oxo-3,5-dihydro-2H-1,5-benzoxazepin-3-yl]-5-isopropyl-6,7-di hydro-5H-pyrrolo[1,2-b][1,2,4]triazole-2-carboxamide]
30 | 3.5 nM | CN1C(=O)[C@@H](NC(=O)c2ncn(Cc3ccccc3Cl)n2)CCn2nc(C3CC3)cc21 [Example 522]
